PubChem BioAssay AID2060491 (Molecular Pharmacology Branch, DTP, NCI, 2025)

System: 857933-349-R-J2-PDC complex spheroids, viability
Assay: Anticancer human tumor 857933-349-R-J2-PDC patient-derived colon adenocarcinoma cell line growth inhibition [GQUAD]
Conditions: for IC50: curve of first compound; for viability, T/C: stronger effect = lower value; active = viability on the fitted dose curve at most 10% of control; inactive = the rest
Source text: DNA G-quadruplex Stabilizer Agents in Combinations in Complex Spheroids
A high-throughput screen of multi-cell type tumor spheroids was designed to identify active combinations of DNA G-quadruplex stabilizer agents and targeted small molecules. Complex spheroids include a stromal component modeled by human endothelial cells (HUVEC) and fibroblasts modeled by human mesenchymal stem cells (MSCs). The concentration ranges selected for each drug and investigational agent were based upon clinically achievable concentrations if the clinical Cmax of the agent was known.
Compounds. The drugs and investigational agents: pidnarulex (CX-5461; NSC782164), APTO-253 (NSC789042), BRACO-19 (NSC847499), peposertib (NSC802822), ceralasertib (NSC780249), elimusertib (NSC800525), camonsertib (NSC841442), AZD-1390 (NSC803789), olaparib (NSC753686), talazoparib (NSC767125), ART-558 (NSC835418), sotorasib (NSC818433), MRTX-1133 (NSC836407), SN-38 (NSC673596), topotecan (NSC609699), etoposide (NSC141540), doxorubicin (NSC123127), gemcitabine (NSC613327), 5-fluorouracil (NSC19893), paclitaxel (NSC125973), vemurafenib (NSC761431), panobinostat (NSC761190), R-306465 (JNJ-16241199; NSC773264), adavosertib (NSC754352), TP-3654 (NSC805149), carboplatin (NSC241240), KSQ-4279 (NSC840948), and staurosporine (NSC755774) were obtained from the National Cancer Institute (NCI) Developmental Therapeutics Program Chemical Repository (34). The FDA-approved anticancer drug set is available from the NCI Developmental Therapeutics Program. […] The stock solutions were prepared in dimethyl sulfoxide (DMSO, Sigma-Aldrich, St. Louis, MO, cat. D2650) at 800-fold the tested concentration and stored at -70 degrees C prior to their use. All drugs and investigational agents were tested over a range starting from a high concentration at or near the clinical Cmax and decreasing in half-log increments. If the clinical Cmax for an agent had not been determined, the highest concentration tested was 10 microM.
2.3 Cell Culture. All cells were maintained in an incubator at 37 degrees C and 5% CO2 with 95% humidity. The PDC lines were cultured according to standard operating procedures established by the NCI PDMR. All PDCs were thawed and cultured in Matrigel-coated flasks prepared with a working solution of 1X Ham's F-12 nutrient mix, without supplementation (Invitrogen, cat. 11765054), 100 U/mL penicillin-streptomycin (Invitrogen, cat. 15140122), and 2.5% Matrigel (Corning Inc., cat. 354248) for the first three passages. The 857933-349-R-J2-PDC line was cultured in 6C/Colon 1B media, which includes advanced DMEM/F-12 (Thermo Fisher Scientific, cat. 12634028), 10 mM HEPES (Thermo Fisher Scientific, cat. 15630080), 1X GlutaMAX supplement (Thermo Fisher Scientific, cat. 35050061), 0.1 mg/mL primocin (InvivoGen, cat. ant-pm-2), 10% defined fetal bovine serum, heat inactivated (HyClone Laboratories Inc., cat. SH30070.03HI), 50% L-WRN conditioned media (ATCC, cat. CRL-3276), 1.25 mM N-Acetyl-L-cysteine (Sigma-Aldrich, cat. A9165), 10 mM nicotinamide (Sigma-Aldrich, cat. N0636), 1X B-27 supplement (Thermo Fisher Scientific, cat. 17504044), 1X N-2 supplement (Thermo Fisher Scientific, cat. 17502048), 10 microM Y-27632 dihydrochloride (Tocris Bioscience, cat. 1254), and 50 ng/mL human EGF recombinant protein (Thermo Fisher Scientific, cat. PHG0311). The 485176-168-R4-J1-PDC line was cultured in Panc media, which includes all 6C/Colon 1B media components plus 100 ng/mL human FGF-10 (Thermo Fisher Scientific, cat. 100-26), 500 nM SB-431542 (Selleckchem, cat. S1067), and gastrin (Tocris, cat. 3006).
[…]

[1] = second compound 0.0316 µM, first compound 0.0316 µM
[2] = second compound 0.0316 µM, first compound 0.1 µM
[3] = second compound 0.0316 µM, first compound 0.316 µM
[4] = second compound 0.0316 µM, first compound 1 µM
[5] = second compound 0.0316 µM, first compound 3.16 µM
[6] = second compound 0.0316 µM, first compound 10 µM
[7] = second compound 0.1 µM, first compound 0.0316 µM
[8] = second compound 0.1 µM, first compound 0.1 µM
[9] = second compound 0.1 µM, first compound 0.316 µM
[10] = second compound 0.1 µM, first compound 1 µM
[11] = second compound 0.1 µM, first compound 3.16 µM
[12] = second compound 0.1 µM, first compound 10 µM
[13] = second compound 0.316 µM, first compound 0.0316 µM
[14] = second compound 0.316 µM, first compound 0.1 µM
[15] = second compound 0.316 µM, first compound 0.316 µM
[16] = second compound 0.316 µM, first compound 1 µM
[17] = second compound 0.316 µM, first compound 3.16 µM
[18] = second compound 0.316 µM, first compound 10 µM
[19] = second compound 1 µM, first compound 0.0316 µM
[20] = second compound 1 µM, first compound 0.1 µM
[21] = second compound 1 µM, first compound 0.316 µM
[22] = second compound 1 µM, first compound 1 µM
[23] = second compound 1 µM, first compound 3.16 µM
[24] = second compound 1 µM, first compound 10 µM
[25] = second compound 3.16 µM, first compound 0.0316 µM
[26] = second compound 3.16 µM, first compound 0.1 µM
[27] = second compound 3.16 µM, first compound 0.316 µM
[28] = second compound 3.16 µM, first compound 1 µM
[29] = second compound 3.16 µM, first compound 3.16 µM
[30] = second compound 3.16 µM, first compound 10 µM
[31] = second compound 10 µM, first compound 0.0316 µM
[32] = second compound 10 µM, first compound 0.1 µM
[33] = second compound 10 µM, first compound 0.316 µM
[34] = second compound 10 µM, first compound 1 µM
[35] = second compound 10 µM, first compound 3.16 µM
[36] = second compound 10 µM, first compound 10 µM
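Also: spheroids exposed to compounds for one week before readout.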
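For viability, T/C in this document: percent viability relative to vehicle DMSO wells taken as 100%.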

COc1ncnc(C2CC2)c1-c1ncc2cnn(Cc3ccc(-c4nc(C(F)(F)F)cn4C(C)C)cc3)c2n1 + CN(C)c1ccc(Nc2c3ccc(NC(=O)CCN4CCCC4)cc3nc3cc(NC(=O)CCN4CCCC4)ccc23)cc1
> 10 µM: IC50 (second compound 0.0316 µM) | IC50 (second compound 0.1 µM) | IC50 (second compound 0.316 µM) | IC50 (second compound 1 µM) | IC50 (second compound 3.16 µM) | IC50 (second compound 10 µM)
inactive: viability, T/C [1] 106% | viability, T/C [2] 99.8% | viability, T/C [3] 102% | viability, T/C [4] 101% | viability, T/C [5] 104% | viability, T/C [6] 104% | viability, T/C [7] 99.9% | viability, T/C [8] 103% | viability, T/C [9] 102% | viability, T/C [10] 101% | viability, T/C [11] 105% | viability, T/C [12] 109% | viability, T/C [13] 104% | viability, T/C [14] 104% | viability, T/C [15] 97.3% | viability, T/C [16] 90.8% | viability, T/C [17] 104% | viability, T/C [18] 99.2% | viability, T/C [19] 97.7% | viability, T/C [20] 88.5% | viability, T/C [21] 94.6% | viability, T/C [22] 92.7% | viability, T/C [23] 90.7% | viability, T/C [24] 87.6% | viability, T/C [25] 83.9% | viability, T/C [26] 77.7% | viability, T/C [27] 82.5% | viability, T/C [28] 74.2% | viability, T/C [29] 79.6% | viability, T/C [30] 67.3% | viability, T/C [31] 64.6% | viability, T/C [32] 63.1% | viability, T/C [33] 66.2% | viability, T/C [34] 61.6% | viability, T/C [35] 56.5% | viability, T/C [36] 52.2%

O=C(c1cc(Cc2n[nH]c(=O)c3ccccc23)ccc1F)N1CCN(C(=O)C2CC2)CC1 + Cc1[nH]c2ccc(F)cc2c1-c1nc2c3cccnc3c3ncccc3c2[nH]1
> 10 µM: IC50 (second compound 0.0316 µM) | IC50 (second compound 0.1 µM) | IC50 (second compound 0.316 µM) | IC50 (second compound 1 µM) | IC50 (second compound 3.16 µM) | IC50 (second compound 10 µM)
inactive: viability, T/C [1] 108% | viability, T/C [2] 95.7% | viability, T/C [3] 98.1% | viability, T/C [4] 96.8% | viability, T/C [5] 118% | viability, T/C [6] 93.4% | viability, T/C [7] 113% | viability, T/C [8] 112% | viability, T/C [9] 92% | viability, T/C [10] 100% | viability, T/C [11] 98.5% | viability, T/C [12] 101% | viability, T/C [13] 102% | viability, T/C [14] 110% | viability, T/C [15] 106% | viability, T/C [16] 97.1% | viability, T/C [17] 103% | viability, T/C [18] 90.9% | viability, T/C [19] 92.5% | viability, T/C [20] 99.7% | viability, T/C [21] 95.7% | viability, T/C [22] 97.6% | viability, T/C [23] 103% | viability, T/C [24] 96.5% | viability, T/C [25] 99.2% | viability, T/C [26] 105% | viability, T/C [27] 98.3% | viability, T/C [28] 98.6% | viability, T/C [29] 100% | viability, T/C [30] 108% | viability, T/C [31] 99.9% | viability, T/C [32] 100% | viability, T/C [33] 101% | viability, T/C [34] 99.8% | viability, T/C [35] 99.3% | viability, T/C [36] 98%
